Assay results published in patent publication US20110190503A1, “Thiazolopyridin-2-yloxy-phenyl and thiazolopyrazin-2-yloxy-phenyl amines as modulators of leukotriene A4 hydrolase” (Janssen Pharmaceutical NV, priority 2008, published 2011).
Counter-ions that a name gives are not always drawn. Like-named read-outs stand apart in the source and are kept apart here.

How the values were obtained:
[1] = target: T1, recombinant human LTA4 hydrolase (rhLTA4H) (Homo sapiens, UniProt P09960); test: Recombinant human LTA4 hydrolase assay for LTA4 hydrolase inhibitor activity; type: biochemical; details: rhLTA4H, LTA4 substrate, LTB4 by immunoassay; single determination or average; read-out: IC50
T1 construct: made in house; host or cells: Spodoptera frugiperda (Sf-9) cells, recombinant baculovirus (pFastBac1)
T1 sequence (P09960 1-611): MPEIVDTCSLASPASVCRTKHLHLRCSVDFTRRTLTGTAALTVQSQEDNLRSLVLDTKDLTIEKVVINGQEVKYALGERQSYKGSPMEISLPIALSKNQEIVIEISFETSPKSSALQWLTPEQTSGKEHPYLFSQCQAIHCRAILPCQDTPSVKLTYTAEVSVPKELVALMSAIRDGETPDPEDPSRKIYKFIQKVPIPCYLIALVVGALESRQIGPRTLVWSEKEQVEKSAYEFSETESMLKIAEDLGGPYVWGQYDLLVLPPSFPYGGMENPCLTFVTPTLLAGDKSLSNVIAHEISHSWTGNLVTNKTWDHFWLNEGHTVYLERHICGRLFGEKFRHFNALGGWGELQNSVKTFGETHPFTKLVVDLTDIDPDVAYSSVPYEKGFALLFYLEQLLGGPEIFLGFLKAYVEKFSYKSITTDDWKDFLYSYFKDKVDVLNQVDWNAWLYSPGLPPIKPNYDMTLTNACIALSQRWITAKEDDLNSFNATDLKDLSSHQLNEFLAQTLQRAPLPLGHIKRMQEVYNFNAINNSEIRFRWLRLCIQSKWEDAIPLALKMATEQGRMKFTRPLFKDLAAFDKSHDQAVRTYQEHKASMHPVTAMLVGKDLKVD
How it was run: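 LTB4 formed from LTA4 substrate (free acid from the methyl ester) was quantified by enzyme immunoassay after a 30 min rt reaction. Enzyme was 10 ng Sf-9-expressed human LTA4 hydrolase, pre-incubated 10 min with compound.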

[2] = test system: LTB4 production by calcium ionophore-stimulated murine blood; test: LTB4 production by calcium ionophore-stimulated murine blood for LTA4H inhibitor activity; type: cell-based, CD-1 mice; details: Mus musculus
Experimental: Assay 2: LTB4 Production by Calcium Ionophore-Stimulated Murine Blood for LTA4H Inhibitor Activity
CD-1 mice were sacrificed, and blood was collected in heparin-containing syringes by cardiac puncture. […] After the microtiter plate contents were incubated for 15 min at 37° C. in a humidified incubator, calcium ionophore A23187 (Sigma Chemical Co., St. Louis, Mo.) was added to each sample well (final concentration=7 μg/mL). The incubation was continued under the same conditions for an additional 30 min to allow LTB4 formation. The reaction was terminated by centrifugation (833×g, 10 min at 4° C.), and supernatants were analyzed for LTB4 by a commercially available enzyme-linked immunoassay (Cayman Chemical Co.) according to the manufacturer's instructions. Positive controls, under essentially identical conditions but without addition of an inhibitor compound, and negative unstimulated controls, containing all assay components except calcium ionophore, were routinely run in each experiment. […] The values presented here are the result of a single determination or an average of two or more determinations, as indicated in parentheses following each value. For compounds tested three or more times, the average value is followed by the standard deviation

[3] = murine blood diluted 1 in 15, calcium ionophore A23187, LTB4 by immunoassay, read-out: IC50

Row | SMILES | IC50 [1] [µM] | IC50 [2] [µM] | IC50 [2, 3] [µM]
1 | NC(=O)N[C@@H]1C[C@H]2CC[C@@H](C1)N2CCOc1ccc(Oc2nc3ncccc3s2)cc1 [Example 142, meso-1-[(3-exo)-8-{2-[4-([1,3]Thiazolo[4,5-b]pyridin-2-yloxy)phenoxy]ethyl}-8-azabicyclo[3.2.1]oct-3-yl]urea hydrochloride] | 0.008 | 1600 | –
2 | CS(=O)(=O)NC1CCN(CCOc2ccc(Oc3nc4ncccc4s3)cc2)CC1 [Example 163, N-[1-(2-{[4-([1,3]Thiazolo[4,5-b]pyridin-2-yloxy)phenyl]oxy}ethyl)piperidin-4-yl]methanesulfonamide] | 0.006 | – | 0.031
3 | c1ccc(SC2CCN(CCOc3ccc(Oc4nc5ncccc5s4)cc3)CC2)cc1 [Example 3, 2-(4-{2-[4-(Phenylsulfanyl)piperidin-1-yl]ethoxy}phenoxy)[1,3]thiazolo[4,5-b]pyridine] | 0.07 | – | 0.38
4 | CC(=O)NC1CCN(CCOc2ccc(Oc3nc4ncc(C)cc4s3)cc2)CC1 [Example 154, N-[1-(2-{4-[(6-Methyl[1,3]thiazolo[4,5-b]pyridin-2-yl)oxy]phenoxy}ethyl)piperidin-4-yl]acetamide] | 0.049 | – | 0.33
5 | c1ccc(CC2CCN(Cc3ccc(Oc4nc5ncccc5s4)cc3)CC2)cc1 [Example 102, 2-{4-[(4-Benzylpiperidin-1-yl)methyl]phenoxy}[1,3]thiazolo[4,5-b]pyridine] | 0.015 | – | 0.21
6 | C[C@H]1COCCN1Cc1ccc(Oc2nc3ncccc3s2)cc1 [Example 88, 2-(4-{[(3S)-3-Methylmorpholin-4-yl]methyl}phenoxy)[1,3]thiazolo[4,5-b]pyridine] | 0.008 | – | 0.05
7 | OC1CCN(Cc2ccc(Oc3nc4ncccc4s3)cc2)CC1 [Example 137, 1-[4-([1,3]Thiazolo[4,5-b]pyridin-2-yloxy)benzyl]piperidin-4-ol] | 0.008 | – | 0.0056
8 | c1ccc(C2CCN(CCOc3ccc(Oc4nc5ncccc5s4)cc3)CC2)nc1 [Example 34, 2-{4-[2-(4-Pyridin-2-ylpiperidin-1-yl)ethoxy]phenoxy}[1,3]thiazolo[4,5-b]pyridine] | 0.019 | – | 0.14
9 | c1cnc2nc(Oc3ccc(OCCN4CCC(c5ccncc5)CC4)cc3)sc2c1 [Example 29, 2-{4-[2-(4-Pyridin-4-ylpiperidin-1-yl)ethoxy]phenoxy}[1,3]thiazolo[4,5-b]pyridine] | 0.013 | – | 0.18
10 | c1ccc(SC2CCN(Cc3ccc(Oc4nc5ncccc5s4)cc3)CC2)nc1 [Example 263, 2-(4-{[4-(Pyridin-2-ylsulfanyl)piperidin-1-yl]methyl}phenoxy)[1,3]thiazolo[4,5-b]pyridine] | 0.004 | – | 0.462
11 | O=C(O)CCNCc1ccc(Oc2nc3ncccc3s2)cc1 [Example 275, N-[4-([1,3]Thiazolo[4,5-b]pyridin-2-yloxy)benzyl]-beta-alanine] | 0.047 | – | 3.3
12 | OC1(c2cccc(C(F)(F)F)c2)CCN(CCOc2ccc(Oc3nc4ncccc4s3)cc2)CC1 [Example 33, 1-{2-[4-([1,3]Thiazolo[4,5-b]pyridin-2-yloxy)phenoxy]ethyl}-4-[3-(trifluoromethyl)phenyl]piperidin-4-ol] | 0.017 | – | 0.48
13 | c1cnc2nc(Oc3ccc(CNCCN4CCCCC4)cc3)sc2c1 [Example 91, 2-Piperidin-1-yl-N-[4-([1,3]thiazolo[4,5-b]pyridin-2-yloxy)benzyl]ethanamine] | 0.039 | – | 0.68
14 | CC(=O)N[C@H]1C[C@H]2CC[C@@H](C1)N2Cc1ccc(Oc2nc3cccnc3s2)cc1 [Example 119, meso-N-{(3-endo)-8-[4-([1,3]Thiazolo[5,4-b]pyridin-2-yloxy)benzyl]-8-azabicyclo[3.2.1]oct-3-yl}acetamide] | 0.07 | – | 0.77
15 | NC(=O)N1CC2CN(CCc3ccc(Oc4nc5cccnc5s4)cc3)CC2C1 (stereo not shown) [Example 70, 5-{2-[4-([1,3]Thiazolo[5,4-b]pyridin-2-yloxy)phenyl]ethyl}hexahydropyrrolo[3,4-c]pyrrole-2(1H)-carboxamide] | 0.072 | – | 0.35
16 | CC(=O)N1C[C@@H]2C[C@H]1CN2Cc1ccc(Oc2nc3nccc(C)c3s2)cc1 [Example 125, 2-(4-{[(1S,4S)-5-Acetyl-2,5-diazabicyclo[2.2.1]hept-2-yl]methyl}phenoxy)-7-methyl[1,3]thiazolo[4,5-b]pyridine] | 0.012 | – | 0.019
17 | OC1(c2cccc(C(F)(F)F)c2)CCN(CCOc2ccc(Oc3nc4nccnc4s3)cc2)CC1 [Example 24, 1-{2-[4-([1,3]Thiazolo[4,5-b]pyrazin-2-yloxy)phenoxy]ethyl}-4-[3-(trifluoromethyl)phenyl]piperidin-4-ol] | 0.052 | – | 0.75
18 | c1cnc2nc(Oc3ccc(CCN4CCC(c5ccncc5)CC4)cc3)sc2c1 [Example 65, 2-{4-[2-(4-Pyridin-4-ylpiperidin-1-yl)ethyl]phenoxy}[1,3]thiazolo[4,5-b]pyridine] | 0.0096 | – | 0.1
19 | OC1(c2ccccc2)CCN(CCOc2ccc(Oc3nc4nccnc4s3)cc2)CC1 [Example 22, 4-Phenyl-1-{2-[4-([1,3]thiazolo[4,5-b]pyrazin-2-yloxy)phenoxy]ethyl}piperidin-4-ol] | 0.062 | – | 0.2
20 | c1cnc2nc(Oc3ccc(OCCN4CCOCC4)cc3)sc2c1 [Example 11, 2-[4-(2-Morpholin-4-ylethoxy)phenoxy][1,3]thiazolo[4,5-b]pyridine] | 0.098 | – | 0.19
21 | O=C(O)C1CCN(CCc2ccc(Oc3nc4ncccc4s3)cc2)CC1 [Example 81, 1-{2-[4-([1,3]Thiazolo[4,5-b]pyridin-2-yloxy)phenyl]ethyl}piperidine-4-carboxylic acid] | 0.027 | – | 4.25
22 | c1cnc2nc(Oc3ccc(CN4CCC(Oc5ccncc5)CC4)cc3)sc2c1 [Example 262, 2-(4-{[4-(Pyridin-4-yloxy)piperidin-1-yl]methyl}phenoxy)[1,3]thiazolo[4,5-b]pyridine] | 0.003 | – | 0.097
23 | OC1(c2cccc(C(F)(F)F)c2)CCN(CCc2ccc(Oc3nc4ncccc4s3)cc2)CC1 [Example 64, 1-{2-[4-([1,3]Thiazolo[4,5-b]pyridin-2-yloxy)phenyl]ethyl}-4-[3-(trifluoromethyl)phenyl]piperidin-4-ol] | 0.027 | – | 0.22
24 | c1ccc(C2CCN(CCc3ccc(Oc4nc5ncccc5s4)cc3)CC2)nc1 [Example 48, 2-{4-[2-(4-Pyridin-2-ylpiperidin-1-yl)ethyl]phenoxy}[1,3]thiazolo[4,5-b]pyridine] | 0.015 | – | 0.1
25 | c1ccc2c(c1)CCN(CCOc1ccc(Oc3nc4ncccc4s3)cc1)C2 [Example 6, 2-{2-[4-([1,3]Thiazolo[4,5-b]pyridin-2-yloxy)phenoxy]ethyl}-1,2,3,4-tetrahydroisoquinoline] | 0.009 | – | 0.064
26 | c1cncc(OC2CCN(CCOc3ccc(Oc4nc5ncccc5s4)cc3)CC2)c1 [Example 4, 2-(4-{2-[4-(Pyridin-3-yloxy)piperidin-1-yl]ethoxy}phenoxy)[1,3]thiazolo[4,5-b]pyridine] | 0.009 | – | 0.054
27 | F[C@@H]1CCN(Cc2ccc(Oc3nc4ncccc4s3)cc2)C1 [Example 87, 2-(4-{[(3R)-3-Fluoropyrrolidin-1-yl]methyl}phenoxy)[1,3]thiazolo[4,5-b]pyridine] | 0.03 | – | 0.024
28 | CC(=O)N1C[C@@H]2C[C@H]1CN2Cc1ccc(Oc2nc3cccnc3s2)cc1 [Example 124, 2-(4-{[(1S,4S)-5-Acetyl-2,5-diazabicyclo[2.2.1]hept-2-yl]methyl}phenoxy)[1,3]thiazolo[5,4-b]pyridine] | 0.22 | – | 0.7
29 | OCC1CCN(Cc2ccc(Oc3nc4ncccc4s3)cc2)CC1 [Example 95, {1-[4-([1,3]Thiazolo[4,5-b]pyridin-2-yloxy)benzyl]piperidin-4-yl}methanol] | 0.011 | – | 0.029
